Drawing on US8822430B2 (Gilead Sciences, Inc., priority 2009, dated 2014), this text covers EC50 for 23 molecules.

Each structure is given as a SMILES string.

In this assay the test system is HCV 1b RLuc cells (dicistronic genotype 1b Con1 replicon). In words: Renilla luciferase (RLuc)-based HCV replicon reporter assay. It counts as cell-based, HCV genotype 1b. The settings on record: Hepatitis C virus, 72 h, HCV 1b RLuc replicon, 72 hours; read-out: Activity (antiviral potency [EC50]). The method, boiled down:
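HCV 1b RLuc cells carrying a dicistronic genotype 1b Con1 replicon were treated with serially diluted compounds from 10 mM DMSO stocks. After 72 h, cells were lysed and Renilla luciferase activity measured. EC50 was obtained by non-linear regression.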
Background: In antiviral work, replicon cells carry a viral genome segment that copies itself.
With `CC[C@H](NC(=O)OC)C(=O)N1C[C@@H](C#N)C[C@H]1c1ncc(-c2ccc(-c3ccc4cc(-c5cnc([C@@H]6CC7(CC7)CN6C(=O)[C@@H](NC(=O)OC)C(C)C)[nH]5)ccc4c3)cc2)[nH]1`, the 50% effective concentration (EC50) was 0.0176 nM.

Turning to `COC(=O)N[C@H](C(=O)N1[C@@H]2CC[C@@H](C2)[C@H]1c1nc2ccc(-c3ccc(-c4ccc(-c5ccc6nc([C@@H]7[C@H]8CC[C@H](C8)N7C(=O)[C@@H](NC(=O)OC)C(C)C)[nH]c6c5)cc4)cc3)cc2[nH]1)C(C)C`, the EC50 was determined as 0.283 nM.

As to `COC(=O)N[C@H](C(=O)N1CC2(CC2)C[C@H]1c1ncc(-c2ccc(-c3ccc4cc(-c5cnc([C@@H]6C[C@H](C#N)CN6C(=O)[C@@H](NC(=O)OC)C(C)(C)C)[nH]5)ccc4c3)cc2)[nH]1)C(C)C`, the EC50 came out at 0.0165 nM.

For `COC(=O)N[C@H](C(=O)N1CCC[C@H]1c1ncc(-c2ccc(-c3ccc(-c4cnc([C@@H]5CC[C@H]6CN(C(=O)OC)CC(=O)N65)[nH]4)cc3)cc2)[nH]1)C(C)C`, the concentration giving a half-maximal response (EC50) is 0.0664 nM.

Take `COC(=O)N[C@H](C(=O)N1CCC[C@H]1c1ncc(-c2ccc(-c3ccc(-c4cnc([C@@H]5[C@H]6CC[C@H](C6)N5C(=O)[C@@H](NC(=O)OC)C(C)C)[nH]4)cc3)cc2)[nH]1)C(C)C`: the EC50 is 0.0073 nM.

For `COC(=O)N[C@H](C(=O)N1C[C@@H](Oc2cnccn2)C[C@H]1c1ncc(-c2ccc(-c3ccc4cc(-c5cnc([C@@H]6CC7(CC7)CN6C(=O)[C@@H](NC(=O)OC)C(C)C)[nH]5)ccc4c3)cc2)[nH]1)C(C)C`, the EC50 was found to be 0.014 nM.

For the molecule `COC(=O)N[C@H](C(=O)N1CCC[C@H]1c1ncc(-c2ccc(C#Cc3ccc(-c4cnc([C@@H]5CN(C(=O)OC)CCN5C(=O)[C@@H](NC(=O)OC)C(C)C)[nH]4)cc3)cc2)[nH]1)C(C)C`, the EC50 stood at 0.256 nM.

For `COC(=O)N[C@H](C(=O)N1CCC[C@H]1c1ncc(-c2cc3c(OC)c4sc(-c5cnc([C@@H]6CCCN6C(=O)[C@@H](NC(=O)OC)C(C)C)[nH]5)cc4c(OC)c3s2)[nH]1)C(C)C`, the EC50 stood at 0.0161 nM.

As for `COC(=O)N[C@H](C(=O)N1CCC[C@H]1c1ncc(-c2ccc3c(c2)COCc2cc(-c4cnc([C@@H]5CCCN5C(=O)[C@@H](NC(=O)OC)C(C)C)[nH]4)ccc2-3)[nH]1)C(C)C`, the EC50 was 0.0327 nM.

Turning to `COC(=O)N[C@@H](CCOC(F)F)C(=O)N1[C@@H]2CC[C@@H](C2)[C@H]1c1ncc(-c2ccc(-c3ccc4cc(-c5cnc([C@@H]6CC7(CC7)CN6C(=O)[C@@H](NC(=O)OC)C(C)C)[nH]5)ccc4c3)cc2)[nH]1`, the EC50 stood at 0.008 nM.

Take `COC(=O)N[C@H](C(=O)N1CCC[C@H]1c1ncc(-c2ccc(-c3ccc(-c4cnc(CN5CCC[C@@H](NC(=O)OC(C)(C)C)C5=O)[nH]4)cc3)cc2)[nH]1)C(C)C`: the EC50 was 0.0345 nM.

Turning to `COC(=O)N[C@H](C(=O)N1CCC[C@H]1c1ncc(-c2ccc3cc(-c4ccc(-c5cnc([C@@H]6CCCN6C(=O)[C@@H](NC(=O)OC)C6CCOCC6)[nH]5)cc4)ccc3c2)[nH]1)C1CCCCC1`, the EC50 was 0.0116 nM.

As for `COC(=O)N[C@H](C(=O)N1CCC[C@H]1c1ncc(-c2ccc(C#Cc3ccc(-c4cnc([C@@H]5CN(CC(F)(F)F)CCN5C(=O)[C@@H](NC(=O)OC)C(C)C)[nH]4)cc3)cc2)[nH]1)C(C)C`, the EC50 stood at 1.51 nM.

Regarding `COC(=O)N[C@H](C(=O)N1CCC[C@H]1c1ncc(-c2ccc3c(c2)COc2c-3ccc3cc(-c4cnc([C@@H]5CCCN5C(=O)[C@@H](NC(=O)OC)C(C)C)[nH]4)ccc23)[nH]1)C(C)C`, the 50% effective concentration (EC50) worked out at 0.0044 nM.

Take `COC(=O)N[C@H](C(=O)N1CCC[C@H]1c1ncc(-c2ccc(-c3ccc4cc(-c5cnc([C@@H]6CCCN6C(=O)[C@@H](NC(=O)OC)C(C)C)[nH]5)ccc4c3)cc2)[nH]1)c1ccsc1`: the EC50 was determined as 0.0906 nM.

On to `COC(=O)N[C@H](C(=O)N1CCC[C@H]1c1ncc(-c2ccc3c(c2)COc2c-3ccc3cc(-c4cnc([C@@H]5CCCN5C(=O)[C@@H](NC(=O)OC)C5CCOCC5)[nH]4)ccc23)[nH]1)C1CCOCC1`, for which the EC50 came out at 0.0417 nM.

Consider `COC(=O)N[C@H](C(=O)N1CCC[C@H]1c1ncc(-c2ccc3cc(-c4ccc(-c5cnc([C@@H]6CCCN6C(=O)[C@H](NC(=O)OC)c6cccs6)[nH]5)cc4)ccc3c2)[nH]1)C(C)C`, for which the EC50 worked out at 0.0262 nM.

For the molecule `COC(=O)N[C@H](C(=O)N1CCC[C@H]1c1ncc(-c2ccc3c(c2)CCc2cc(-c4ccc5nc([C@@H]6[C@H]7CC[C@H](C7)N6C(=O)[C@@H](NC(=O)OC)C(C)C)[nH]c5c4)ccc2-3)[nH]1)C(C)C`, the EC50 amounted to 0.0054 nM.

Regarding `COC(=O)N[C@H](C(=O)N1CCC[C@H]1c1nc2ccc(-c3ccc(-c4ccc5nc([C@@H]6CCCN6C(=O)[C@@H](NC(=O)OC)C(C)C)[nH]c5c4)cc3)cc2[nH]1)C(C)C`, the EC50 was 0.0099 nM.

For `COC(=O)N[C@@H](CCSC)C(=O)N1CCC[C@H]1c1nc(-c2ccc3c(c2)C(F)(F)c2cc(-c4cnc([C@@H]5CC6(CC6)CN5C(=O)[C@@H](NC(=O)OC)C(C)C)[nH]4)ccc2-3)c[nH]1`, the EC50 stood at 0.0204 nM.

In the case of `COC(=O)N[C@H](C(=O)N1CC2(CC2)C[C@H]1c1ncc(-c2ccc3c(c2)C(F)(F)c2cc(-c4ccc5nc([C@@H]6[C@H]7CC[C@H](C7)N6C(=O)[C@@H](NC(=O)OC)C(C)C)[nH]c5c4)ccc2-3)[nH]1)C(C)C`, the EC50 is 0.0045 nM.

For `COC(=O)N[C@H](C(=O)N1C[C@@H](C#N)C[C@H]1c1ncc(-c2ccc3cc(-c4ccc(-c5cnc([C@@H]6CC7(CC7)CN6C(=O)[C@@H](NC(=O)OC)C(C)C)[nH]5)cc4)ccc3c2)[nH]1)C(C)C`, the concentration giving a half-maximal response (EC50) was 0.0169 nM.

Consider `COC(=O)N[C@@H](CC#N)C(=O)N1[C@@H]2CC[C@@H](C2)[C@H]1c1nc2ccc(-c3ccc4c(c3)C(F)(F)c3cc(-c5cnc([C@@H]6CC7(CC7)CN6C(=O)[C@@H](NC(=O)OC)C(C)C)[nH]5)ccc3-4)cc2[nH]1`, for which the EC50 worked out at 0.004 nM.

By EC50 is commonly meant the midpoint of the concentration-response curve.
